Source: patent US20090239894A1, “Stabilized aqueous solutions of ergoline compounds” (priority 2008, published 2009)
Like-named read-outs stand apart in the source and are kept apart here.

Key:
[1] = Experimental: Solutions of lisuride hydrogen maleate with a concentration of 2 mg active ingredient per 3 mL solution were investigated with regard to their temperature-dependent stability. These solutions were buffered using a citrate buffer system, so that the pH value of the pure medium was adjusted to 5.1, 4.5 and 3.5. Aqueous solutions of citric acid monohydrate and trisodium citrate dihydrate (0.53 mM each) were prepared.
Suitable mixing of these solutions yielded aqueous buffer systems with a pH of 4.5 and/or 3.5. After 33.3 mg lisuride hydrogen maleate had been weighed out in a scaled 50 mL flask, 40 mL of the corresponding buffer medium was added. The flasks were agitated for several minutes and then exposed to ultrasound for several minutes until the active ingredient was completely dissolved. The solutions were cooled to room temperature and topped off to the mark with buffer medium.
In the case of the more strongly basic medium (pH 5.1), a supply solution was prepared, containing citric acid monohydrate (0.38 mM) and trisodium citrate dihydrate (0.68 mM). This was used to dissolve the active ingredient. In principle, double-distilled water was used to prepare the solutions.
The resulting solutions were stored under three different conditions: under refrigeration at 6 to 8° C., at room temperature (25° C.) and at an elevated temperature of 40° C. The solutions were stored in sealed glass ampoules which were wrapped with aluminum foil for protection from light. After suitable intervals of time, samples were analyzed by means of a specific reverse phase HPLC method with UV detection (running time 30 min, retention time of lisuride ˜13 min).

[2] = 9% propylene glycol; for Average area (percent of lisuride peak area relative to total peak area): no buffer
Experimental: An aqueous solution of lisuride hydrogen maleate which additionally contained 9% propylene glycol was investigated. The active ingredient concentration was adjusted to 2 mg per 3 mL. No buffer system was added. The remaining procedure included weighing 33.3 mg of the active ingredient into a scaled 50 mL flask, then adding the propylene glycol (4.5 g) and also adding 40 mL water. The flask was agitated for several minutes and then exposed to ultrasound until the active ingredient was completely dissolved. The flask was cooled to room temperature and topped off with double-distilled water up to the mark.
The solution was poured into transparent glass ampoules with a volume of 1 mL. These ampoules were sealed airtight and wrapped with aluminum foil to protect them from light. The ampoules were each stored at 6-8° C., 25° C. and 40° C.

[3] = 60° C., one week, dark
Experimental: The additives used were propylene glycol and Cremophor ELP in concentrations between 1.00% and 10.00%.
The solutions were prepared by analogy with the procedure used in examples 1 and 2.
The solutions were stored in the dark in glass containers at 60° C. for one week.

[4] = propylene glycol as low-dose additive (less than 10%)

CCN(CC)C(=O)N[C@H]1C=C2c3cccc4[nH]cc(c34)C[C@H]2N(C)C1.O=C(O)/C=C\C(=O)O [lisuride hydrogen maleate]
Average area (percent of lisuride peak area relative to total peak area) ([1]; citrate buffer pH 3.5, 6-8° C., t 0 d): 99.87%
Average area (percent of lisuride peak area relative to total peak area) ([1]; citrate buffer pH 3.5, 6-8° C., t 7 d): 99.92%
Average area (percent of lisuride peak area relative to total peak area) ([1]; citrate buffer pH 3.5, 6-8° C., t 30 d): 99.80%
Average area (percent of lisuride peak area relative to total peak area) ([1]; citrate buffer pH 3.5, 6-8° C., t 90 d): 99.57%
Average area (percent of lisuride peak area relative to total peak area) ([1]; citrate buffer pH 3.5, 6-8° C., t 180 d): 99.22%
Average area (percent of lisuride peak area relative to total peak area) ([1]; citrate buffer pH 3.5, 25° C., t 0 d): 99.87%
Average area (percent of lisuride peak area relative to total peak area) ([1]; citrate buffer pH 3.5, 25° C., t 7 d): 99.89%
Average area (percent of lisuride peak area relative to total peak area) ([1]; citrate buffer pH 3.5, 25° C., t 30 d): 99.37%
Average area (percent of lisuride peak area relative to total peak area) ([1]; citrate buffer pH 3.5, 25° C., t 90 d): 98.70%
Average area (percent of lisuride peak area relative to total peak area) ([1]; citrate buffer pH 3.5, 25° C., t 180 d): 94.14%
Average area (percent of lisuride peak area relative to total peak area) ([1]; citrate buffer pH 3.5, 40° C., t 0 d): 99.87%
Average area (percent of lisuride peak area relative to total peak area) ([1]; citrate buffer pH 3.5, 40° C., t 7 d): 98.89%
Average area (percent of lisuride peak area relative to total peak area) ([1]; citrate buffer pH 3.5, 40° C., t 30 d): 90.41%
Average area (percent of lisuride peak area relative to total peak area) ([1]; citrate buffer pH 3.5, 40° C., t 90 d): 73.37%
Average area (percent of lisuride peak area relative to total peak area) ([1]; citrate buffer pH 3.5, 40° C., t 180 d): 69.91%
Average area (percent of lisuride peak area relative to total peak area) ([1]; citrate buffer pH 4.5, 6-8° C., t 0 d): 99.79%
Average area (percent of lisuride peak area relative to total peak area) ([1]; citrate buffer pH 4.5, 6-8° C., t 7 d): 99.88%
Average area (percent of lisuride peak area relative to total peak area) ([1]; citrate buffer pH 4.5, 6-8° C., t 30 d): 99.73%
Average area (percent of lisuride peak area relative to total peak area) ([1]; citrate buffer pH 4.5, 6-8° C., t 90 d): 99.75%
Average area (percent of lisuride peak area relative to total peak area) ([1]; citrate buffer pH 4.5, 6-8° C., t 180 d): 99.11%
Average area (percent of lisuride peak area relative to total peak area) ([1]; citrate buffer pH 4.5, 25° C., t 0 d): 99.79%
Average area (percent of lisuride peak area relative to total peak area) ([1]; citrate buffer pH 4.5, 25° C., t 7 d): 99.84%
Average area (percent of lisuride peak area relative to total peak area) ([1]; citrate buffer pH 4.5, 25° C., t 30 d): 99.26%
Average area (percent of lisuride peak area relative to total peak area) ([1]; citrate buffer pH 4.5, 25° C., t 90 d): 98.14%
Average area (percent of lisuride peak area relative to total peak area) ([1]; citrate buffer pH 4.5, 25° C., t 180 d): 95.90%
Average area (percent of lisuride peak area relative to total peak area) ([1]; citrate buffer pH 4.5, 40° C., t 0 d): 99.79%
Average area (percent of lisuride peak area relative to total peak area) ([1]; citrate buffer pH 4.5, 40° C., t 7 d): 98.82%
Average area (percent of lisuride peak area relative to total peak area) ([1]; citrate buffer pH 4.5, 40° C., t 30 d): 94.96%
Average area (percent of lisuride peak area relative to total peak area) ([1]; citrate buffer pH 4.5, 40° C., t 90 d): 90.39%
Average area (percent of lisuride peak area relative to total peak area) ([1]; citrate buffer pH 4.5, 40° C., t 180 d): 87.71%
Average area (percent of lisuride peak area relative to total peak area) ([1]; citrate buffer pH 5.1, 6-8° C., t 0 d): 100.00%
Average area (percent of lisuride peak area relative to total peak area) ([1]; citrate buffer pH 5.1, 6-8° C., t 7 d): 99.90%
Average area (percent of lisuride peak area relative to total peak area) ([1]; citrate buffer pH 5.1, 6-8° C., t 30 d): 99.72%
Average area (percent of lisuride peak area relative to total peak area) ([1]; citrate buffer pH 5.1, 6-8° C., t 90 d): 99.59%
Average area (percent of lisuride peak area relative to total peak area) ([1]; citrate buffer pH 5.1, 6-8° C., t 180 d): 99.29%
Average area (percent of lisuride peak area relative to total peak area) ([1]; citrate buffer pH 5.1, 25° C., t 0 d): 100.00%
Average area (percent of lisuride peak area relative to total peak area) ([1]; citrate buffer pH 5.1, 25° C., t 7 d): 99.79%
Average area (percent of lisuride peak area relative to total peak area) ([1]; citrate buffer pH 5.1, 25° C., t 30 d): 99.36%
Average area (percent of lisuride peak area relative to total peak area) ([1]; citrate buffer pH 5.1, 25° C., t 90 d): 98.64%
Average area (percent of lisuride peak area relative to total peak area) ([1]; citrate buffer pH 5.1, 25° C., t 180 d): 95.45%
Average area (percent of lisuride peak area relative to total peak area) ([1]; citrate buffer pH 5.1, 40° C., t 0 d): 100.00%
Average area (percent of lisuride peak area relative to total peak area) ([1]; citrate buffer pH 5.1, 40° C., t 7 d): 98.86%
Average area (percent of lisuride peak area relative to total peak area) ([1]; citrate buffer pH 5.1, 40° C., t 30 d): 94.71%
Average area (percent of lisuride peak area relative to total peak area) ([1]; citrate buffer pH 5.1, 40° C., t 90 d): 90.99%
Average area (percent of lisuride peak area relative to total peak area) ([1]; citrate buffer pH 5.1, 40° C., t 180 d): 87.98%
decomposition of the active ingredient ([1]; citrate-buffered (pH 5.1, 4.5, 3.5), room temperature, within 180 days): 5%
decomposition of the active ingredient ([1]; citrate-buffered, storage at 40° C.): up to 30%
decomposition of the active ingredient ([1]; citrate-buffered, storage under refrigeration): approximately 0.7%
discoloration of the solutions ([1]; citrate-buffered, stored at 40° C.): significant yellow discoloration after only 30 days, turning brown after another 60 days
discoloration of the solutions ([2]; elevated temperature): slight yellow discoloration was observed only after a storage time of 90 days
Average area (percent of lisuride peak area relative to total peak area) ([2]; 6-8° C., t 0 d): 99.80%
Average area (percent of lisuride peak area relative to total peak area) ([2]; 6-8° C., t 7 d): 99.79%
Average area (percent of lisuride peak area relative to total peak area) ([2]; 6-8° C., t 30 d): 99.67%
Average area (percent of lisuride peak area relative to total peak area) ([2]; 6-8° C., t 90 d): 99.52%
Average area (percent of lisuride peak area relative to total peak area) ([2]; 6-8° C., t 180 d): 99.36%
Average area (percent of lisuride peak area relative to total peak area) ([2]; 25° C., t 0 d): 99.80%
Average area (percent of lisuride peak area relative to total peak area) ([2]; 25° C., t 7 d): 99.79%
Average area (percent of lisuride peak area relative to total peak area) ([2]; 25° C., t 30 d): 99.46%
Average area (percent of lisuride peak area relative to total peak area) ([2]; 25° C., t 90 d): 99.15%
Average area (percent of lisuride peak area relative to total peak area) ([2]; 25° C., t 180 d): 98.35%
Average area (percent of lisuride peak area relative to total peak area) ([2]; 40° C., t 0 d): 99.80%
Average area (percent of lisuride peak area relative to total peak area) ([2]; 40° C., t 7 d): 99.33%
Average area (percent of lisuride peak area relative to total peak area) ([2]; 40° C., t 30 d): 97.59%
Average area (percent of lisuride peak area relative to total peak area) ([2]; 40° C., t 90 d): 94.06%
Average area (percent of lisuride peak area relative to total peak area) ([2]; 40° C., t 180 d): 89.76%
active ingredient decomposed ([2]; refrigeration, 180 days): approximately 0.4%
remaining active ingredient content in comparison with the initial concentration ([2]; room temperature, 180 days): 98.4%
active ingredient decomposed ([2]; storage at 40° C.): approximately 10%
stability compared with solutions without propylene glycol (Example 1) ([2]; 6-8° C., 25° C. and 40° C.): significantly more stable
degradation of the active ingredient ([3]; 1% Cremophor ELP): 14.3%
degradation of the active ingredient ([3]; 10% Cremophor ELP): 21.3%
remaining active ingredient content ([3]; propylene glycol): 92.5%
solubility of the active ingredient with propylene glycol [4]: improved solubility
